Results taken from patent EP0885186B1, “AMINO ACID DERIVATIVES, PHARMACEUTICAL COMPOSITIONS CONTAINING THESE COMPOUNDS AND PROCESSES FOR PREPARING THEM” (Dr. Karl Thomae GmbH, priority 1995, dated 1997).
Values belong to the compound of their own block, whether it stands above or below them.

Tests used:
NPY-Y1 receptor = biological target: T1, NPY-Y1 receptor (Homo sapiens, UniProt P25929); assay: Studies of binding with SK-N-MC cells, displacement of [125I]-Bolton-Hunter-NPY; settings: inhibition of specific binding of [125I]-Bolton-Hunter-NPY, 3 hours at ambient temperature
T1 construct: endogenous in cells; host or cells: SK-N-MC cells (whole cells in suspension)
T1 sequence (P25929 1-384): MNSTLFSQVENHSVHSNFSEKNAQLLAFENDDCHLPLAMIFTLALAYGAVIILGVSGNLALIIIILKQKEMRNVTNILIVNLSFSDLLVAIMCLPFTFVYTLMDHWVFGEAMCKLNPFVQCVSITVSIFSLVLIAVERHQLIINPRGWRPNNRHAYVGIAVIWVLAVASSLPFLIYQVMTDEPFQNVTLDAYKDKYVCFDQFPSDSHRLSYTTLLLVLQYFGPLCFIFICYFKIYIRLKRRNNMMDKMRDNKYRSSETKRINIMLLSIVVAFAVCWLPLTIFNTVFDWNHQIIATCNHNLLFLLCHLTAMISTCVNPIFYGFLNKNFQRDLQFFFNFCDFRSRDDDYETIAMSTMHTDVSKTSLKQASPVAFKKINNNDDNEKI
Protocol: A. Studies of binding with SK-N-MC cells (expressing the human Y1-receptor)
The cells are detached using a mixture of 0.02% EDTA in PBS and resuspended in 10 ml of incubation medium (MEM/25 mM Hepes + 0.5% BSA, 50 µM PMSF, 0.1% bacitracin, 3.75 mM CaCl2) per 40 million cells approx. After 5 minutes' centrifuging (150 x g) the pellet is resuspended in the same volume and, after a further washing step in 10 ml of incubation medium, counted and diluted to 1.25 million cells/ml. Then 200 µl of a suspension of 1.25 million cells/ml is incubated for 3 hours at ambient temperature with 25 µl of a 300 pM solution of [^125I]-Bolton-Hunter-NPY and increasing concentrations (10^-11 to 10^-6 M) of the test substances, whilst maintaining a total volume of 250 µl. Incubation is ended by centrifuging (10 minutes at 3000 x g and 4°C). After washing once with PBS, the radioactivity of the pellet is measured in a gamma counter. The radioactivity thus obtained represents the sum of specific and non-specific binding of [^125I]-Bolton-Hunter-NPY. The proportion of non-specific binding is defined as that radioactivity which is bound in the presence of 1 µM NPY. The IC50 values of the unlabelled test substances are determined graphically. They represent the concentration of the test substance in question at which the specific binding of[^125I]-Bolton-Hunter-NPY to the NPY-Y1 receptor is inhibited by 50%.

NPY activity = assay: NPY-antagonism in vitro, isolated perfused rat kidney, NPY-induced perfusion pressure increase; design: species or system rats; settings: inhibition of pressure increase by NPY (1µM) bolus
Protocol: B. NPY-antagonism in vitro
Male rats (CHbb: THOM, 300 to 350 g) are given heparin (100 IU, i.v.) and the animals are then killed by a blow to the back of the neck. The abdomen is opened along the centre of the body and the left kidney is removed after the insertion of catheters in the renal artery, renal vein and ureter. The isolated kidney is immediately perfused with a modified Krebs-Ringer solution having the following composition (4 ml/minute):
A mixture of 95% O2/5% CO2 is passed through the solution which is kept at a temperature of 37°C. The perfusion pressure is measured continuously using a pressure gauge. After a 60 minute stabilisation period the perfusion rate is adjusted so as to obtain a perfusion pressure of approximately 100 mm Hg. After a further 30 minutes the experiment is started and NPY (1µM) is administered as a bolus (0.1 ml) at 15 minute intervals until the pressure increase observed reaches a constant value. The compounds to be tested are given in the form of a continuous infusion over a period of 5 minutes and then NPY is injected. After a 30 minute wash-out period the next highest concentration of test substance is investigated. 3 to 5 different concentrations of the particular compound are tested on each occasion. […]

[1] = test system: NPY-induced blood pressure effects; assay: In vivo NPY-antagonism, pithed rats, NPY-induced increase in diastolic blood pressure; settings: test substance injected 1 min before NPY 10 µg/kg i.v.
Protocol: C. In vivo NPY-antagonism
Male rats of normal blood pressure (Chbb:THOM, 300 to 350 g) are anaesthetised with sodium hexobarbital (150 mg/kg, i.p.). After intubation of the trachea the animals are pithed by introducing a blunt needle through the eye into the spinal bone marrow channel. The animals are ventilated with oxygen-rich ambient air using a respiratory pump (20 strokes/minute). A cannula is inserted in the left carotid artery and the arterial blood pressure is measured using a pressure gauge (Braun Melsungen Combitrans) connected to a recording device. For injection purposes a catheter is placed in the left jugular vein through which heparin is administered (200 IU/kg, i.v.). After the blood pressure has been stabilised, the animals are given 2 bolus injections of NPY (10 µg/kg, i.v.) at intervals of 15 minutes. The average increase in diastolic blood pressure is taken as the reference value (= 100%). The test substances are injected in increasing doses (4 to 6 doses) at intervals of 15 minutes. One minute after administration of the test substance, NPY is administered.
The antagonistic effect of the test substances is determined by plotting the percentage inhibition of the NPY-induced blood pressure effects against the logarithm of the concentration of active substance.

NPY-induced food intake = assay: Food intake in satiated rats after NPY application to the paraventricular nucleus; assay type: in vivo; settings: for Food intake following NPY application: 2 h intake, satiated rats; for % Inhibition of food intake: versus vehicle + NPY
Protocol: D. In vivo Studies in rats: Food intake in satiated rats
For these determinations food intake was measured in normal satiated rats after application of NPY to the paraventricular nucleus (PVN) in the presence or absence of the test compound. Male Chbb: Thom rats weighing between 300 and 350 g were used for all experiments. The rats were individually housed in stainless steel cages where water and food were available ad libitum.
Rats under Pentobarbital anaesthesia were stereotactically implanted with a stainless steel double guide cannula targeted bilaterally at the PVNs. Stereotactic coordinates were: -1.8mm caudal, 0.5mm lateral to bregma and 7.0mm below the skull surface. Injection cannulae extended the guide cannulae by 1 mm. Animals were allowed to recover from surgery for at least 10 days before being used in the experiments. Rats were handled and mock-injected during the one-week recovery period to habituate them to the injection procedure.
Animals treated with both test compounds and NPY were treated first with the test compound. Then, 15 min. after PVN infusion of the test compound or vehicle (control) 1 µg of NPY was administered by PVN infusion.
Food intake was measured by placing preweighed pellets into the cages at the time of NPY injection. Pellets were removed from the cage at 2 h post NPY injection. The food intake of animals treated with test compound was calculated as a percentage of the food intake of control animals, i.e., animals treated with vehicle.

food-deprived rats = assay: Food intake in food-deprived rats; assay type: in vivo; settings: 24 hour food deprived rats, 15 µg, bilaterally, into PVN
Protocol: Food intake in food-deprived rats
Food-deprivation experiments were conducted with male Chbb:Thom rats weighing between 300 and 350 g. The animals were individually housed for the duration of the study and allowed free access to normal food together with tap water. Food was removed from the animals for 24 hours starting at 8:00 a.m. At the end of the fasting period compound or vehicle was administered to the animals by infusion into the PVN. Food was returned to the animals and their food intake monitored at various time periods during the following 24 hour period. The food intake of animals treated with test compound was calculated as a percentage of the food intake of control animals (i.e., animals treated with vehicle).

Compound: CN(CCCC(NC(=O)C(c1ccccc1)c1ccccc1)C(=O)NCc1ccc(O)cc1)C(=N)N (racemic) [(B), (R,S)-N^5-(aminoiminomethyl)-N^2-(diphenylacetyl)-N-[(4-hydroxyphenyl)methyl]-N^5-methyl-ornithinamide]
IC50 (NPY-Y1 receptor): 620 pM
pIC50 (NPY activity): 8.41 mol/l
pID50 [1]: 7.87 mol/kg

Compound: CCOC(=O)CNC(=O)NCc1ccc(CNC(=O)[C@@H](CCCNC(=N)N)NC(=O)C(c2ccccc2)c2ccccc2)cc1 [(E), (R)-N^2-(diphenylacetyl)-N-[[4-(ethoxycarbonylmethylamino-carbonylaminomethyl)-phenyl)methyl]-argininamide]
IC50 (NPY-Y1 receptor): 400 pM

Compound: N=C(N)NCCC[C@@H](NC(=O)C(c1ccc(Cl)cc1)c1ccc(Cl)cc1)C(=O)NCc1ccc(CNC(N)=O)cc1 [(F), (R)-N-[[4-(aminocarbonylaminomethyl)phenyl]methyl]-N^2-[bis-(4-chlorophenyl)-acetyl]-argininamide]
IC50 (NPY-Y1 receptor): 350 pM

Compound: N=C(N)NCCC[C@@H](NC(=O)C(c1ccc(O)cc1)c1ccc(O)cc1)C(=O)NCc1ccc(CNC(N)=O)cc1 [(G), (R)-N-[[4-(aminocarbonylaminomethyl)phenyl]methyl]-N^2-[bis-(4-hydroxyphenyl)-acetyl]-argininamide]
IC50 (NPY-Y1 receptor): 170 pM

Compound: NPY: NPY, agonist applied to the paraventricular nucleus (1 µg) to elicit feeding response in satiated rats
two hour food intake (NPY-induced food intake; NPY 1µg into PVN, 0.5 g in animals injected with vehicle): 3.5 g

The next lines start with results.

pIC50 (NPY activity): 8.12 mol/l
Compound: N=C(N)NCCC[C@@H](NC(=O)C(c1ccccc1)c1ccccc1)C(=O)NCc1ccc(CNC(N)=O)cc1 [(A), (R)-N-[[4-(aminocarbonylaminomethyl)phenyl]methyl]-N^2-(diphenylacetyl)-argininamide]
Food intake following NPY application (NPY-induced food intake; 15 µg of compound by PVN infusion 15 min before 1 µg NPY): 2.62 g/animal
% Inhibition of food intake (NPY-induced food intake; 15 µg of compound by PVN infusion): 25.9%
Food intake following NPY application (NPY-induced food intake; 30 µg of compound by PVN infusion 15 min before 1 µg NPY): 1.67 g/animal
% Inhibition of food intake (NPY-induced food intake; 30 µg of compound by PVN infusion): 52.8%
Food intake following NPY application (NPY-induced food intake; 60 µg of compound by PVN infusion 15 min before 1 µg NPY): 1.07 g/animal
% Inhibition of food intake (NPY-induced food intake; 60 µg of compound by PVN infusion): 69.8%
duration of significant reduction in food intake (food-deprived rats): at least 4 h
pID50 [1]: 8.11 mol/kg

IC50 (NPY-Y1 receptor): 630 pM
Compound: N=C(N)NCCC[C@@H](NC(=O)C(c1ccccc1)c1ccccc1)C(=O)NCc1ccc(CC(N)=O)cc1 [(C), (R)-N-[[4-(aminocarbonylmethyl)phenyl]methyl]-N^2-(diphenylacetyl)-argininamide]

IC50 (NPY-Y1 receptor): 750 pM
Compound: CCNC(=O)NCc1ccc(CNC(=O)[C@@H](CCCNC(=N)N)NC(=O)C(c2ccccc2)c2ccccc2)cc1 [(D), (R)-N^2-(diphenylacetyl)-N-[[4-(ethylaminocarbonylamino-methyl)phenyl]methyl]-argininamide]
